{"source": "patent US12390537B2", "about": "“Compositions of polymeric microdevices and methods of use thereof in cancer immunotherapy” (Massachusetts Institute of Technology, priority 2020, dated 2025)", "key": {"interleukin-6 (IL-6)": {"tested_on": "interleukin-6 (IL-6)", "test": "Systemic IL-6 response of orthotopic 4T1 tumor-bearing mice", "assay_type": "in vivo", "conditions": "day 1 to 7; cGAMP-MPs single injection, cGAMP-S four injections"}, "[1]": {"tested_on": "phosphorylated-IRF3 (p-IRF3)", "test": "Western blot of B16F10 tumors", "assay_type": "in vivo, mice", "conditions": "tumors at day 16; cGAMP-MPs single injection, cGAMP-S three injections", "description": "(§1) Mice bearing B16F10 tumors were treated with the following 4 experimental groups (n=8): untreated, 1×EPs, 3×cGAMP-S, and 1×cGAMP-S plus cGAMP-MPs, respectively (FIG. 4A). Tumors were collected at day 16 post tumor inoculation and cut into 50-100 mg small pieces in a 1.5 mL microcentrifuge tube. The tumors were lysed in radioimmunoprecipitation assay (RIPA) buffer (Sigma-Aldrich), homogenized, and centrifuged at 20130 rcf for 10 min. The protein content in the supernatant was quantified using a bicinchoninic acid protein assay kit (Thermo Fisher Scientific, MA, USA). Equal amounts of proteins (20 μg) were separated on a 4 to 15% gradient SDS-polyacrylamide gel (Bio-Rad, Hercules, CA) and electro-transferred to nitrocellulose membrane. The membranes were then blocked with 5% milk in tris-buffered saline supplemented with 0.05% Tween 20 and further incubated with GAPDH monoclonal antibody (Invitrogen, CA, cat. no. MA5-27912), phospho-TBK1/NAK (Ser172) (D52C2) Rabbit mAb (Cell Signaling Technology, cat. no. 5483S), or phospho-IRF-3 (S396) Rabbit mAb (Cell Signaling Technology, cat. no. 4947S) at 4° C. overnight. The membranes were then incubated with goat anti-rabbit IgG (H+L) Secondary Antibody, HRP (Invitrogen, cat. no. TG266717) for 1 h at room temperature. Protein bands were visualized by chemiluminescence using the ECL Western Blotting Substrate (Thermo Fisher Scientific, MA)."}, "[2]": {"tested_on": "phosphorylated-TBK1 (p-TBK1)", "test": "Western blot of B16F10 tumors", "assay_type": "in vivo, mice", "conditions": "tumors at day 16; cGAMP-MPs single injection, cGAMP-S three injections", "description": "as §1"}, "[3]": {"tested_on": "immune cells in TME of B16F10 melanoma tumors", "test": "Flow cytometry of immune cells in B16F10 TME", "assay_type": "in vivo, mice", "description": "as §1\nTo stain the intracellular marker, e.g., IFN-γ, cells were pre-stimulated with cell stimulation cocktail (eBioscience, cat. no. 00-4970-93) for 4-6 h, fixed and permeabilized using fixation/permeabilization solution kit (BD, cat. no. 554714), and then stained with both anti-IFN-γ and other surface antibodies. Antibodies used for flow cytometry studies were anti-CD86-BUV395 (BD, cat. no. 564199), anti-CD45-BUV737 (BD, cat. no. 564880), anti-TCRβ-BV421 (Biolegend, cat. no. 109229), anti-NK1.1-BV605 (Biolegend, cat. no. 108739), anti-NK1.1-BV605 (Biolegend, cat. no. 108739), anti-CD8a-FITC (BD, cat. no. 553030), anti-CD4-PerCP/Cy5.5 (BD, cat. no. 550954), anti-CD62L-PE (Biolegend, cat. no. 104407), anti-CD19-PE/Cy7 (eBioscience, cat. no. 25-0193-81), anti-CD3-PE/594 (Biolegend, cat. no. 100245), anti-FOXP3-APC (eBioscience, cat. no. 17-5773-80), anti-CD11b-AF700 (Biolegend, cat. no. 201222), anti-CD8a-BV421 (Biolegend, cat. no. 100737), anti-Ly6g-BV510 (Biolegend, cat. no. 127633), anti-Siglec F-BV605 (BD, cat. no. 740388), anti-MHC II-BV786 (BD, cat. no. 743875), anti-Ly6c-AF488 (Biolegend, cat. no. 128021), anti-CD11c-PerCP/Cy5.5 (Biolegend, cat. no. 117327), anti-CD206-PE (Biolegend, cat. no. 141705), anti-CD197-PE/594 (Biolegend, cat. no. 120121), anti-F4/80-PE/Cy7 (Biolegend, cat. no. 123113), anti-CD200R3-APC (Biolegend, cat. no. 142207), anti-CD11b-AF700 (Biolegend, cat. no. 101222), and viability dye eFluor 780 (eBiosciecne, cat. no. 65-0865-14). Flow cytometry data were acquired on an LSRFortessa cell analyzer (BD) and analyzed using FlowJo software."}, "[4]": {"tested_on": "KPC pancreatic cancer cells", "test": "Treatment of orthotopic pancreatic tumor model", "assay_type": "in vivo, mice", "conditions": "25 days; cGAMP-MPs three doses at days 0, 4, 8; cGAMP-S single high dose (30 μg) with EPs", "description": "A small incision was made to exteriorize the spleen and pancreas of C57BL/6 female mice. 5×10^5 KPC cells in 50 μL of PBS and Matrigel (1:1 mixture by volume) were injected into the tail of the pancreas. cGAMP-MPs (10 μg of cGAMP-S, 5 PLGA-1 microdevices containing 10 μg of cGAMP and 5 PLGA-2 microdevices containing 10 μg of cGAMP) or 1×cGAMP-S plus EPs (30m of cGAMP-S, 5 each of empty PLGA-1 and PLGA-2 microdevices) in 50 μL MC solution were also injected into the tail of the pancreas. The wound was then closed by an autoclip wound clip system. Mice were euthanized 25 days after tumor inoculation. The tumors were isolated and weighted by a balance. Metastasis to lungs was evaluated by H&E staining of lung sections."}, "[5]": {"tested_on": "ecto-nucleotide pyrophosphatase/phosphodiesterase 1 (ENPP1)", "conditions": "versus naturally produced 2′3′-cGAMP; Kato K. et al.; cited from earlier work"}, "[6]": {"conditions": "day 16, cGAMP-MPs single injection, cGAMP-S three injections"}}, "data": [{"smiles": "Nc1nc2c(ncn2[C@@H]2O[C@@H]3COP(=O)(O)O[C@H]4[C@@H](O)[C@H](n5cnc6c(N)ncnc65)O[C@@H]4COP(=O)(O)O[C@H]3[C@H]2O)c(=O)[nH]1", "note": "[cGAMP-S, 3′3′-cGAMP]", "values": [{"measurement": "systemic IL-6 levels", "setting": "interleukin-6 (IL-6)", "result": "elevated"}, {"measurement": "expression of p-IRF3", "setting": "[1]", "result": "high expression levels"}, {"measurement": "expression of p-TBK1", "setting": "[2]", "result": "high expression levels"}, {"measurement": "polarization of macrophages within the TME", "setting": "[3]; 3 doses of soluble cGAMP or 1 dose of cGAMP-MPs", "result": "repolarization of M2-like macrophages in the tumor to M1-like phenotype"}, {"measurement": "increase of CD8+/CD4+ T cell ratio", "setting": "[3]; [6]", "result": 1.2, "unit": "fold"}, {"measurement": "increase of TILs compared to untreated", "setting": "[3]; [6]", "result": "approximately 23.5 fold"}, {"measurement": "increase of surface expression of CD86 on tumor infiltrating DCs", "setting": "[3]; [6]", "result": 1.7, "unit": "fold"}, {"measurement": "increase of tumor-infiltrating CD4+ T cells", "setting": "[3]; [6]", "result": 23.6, "unit": "fold"}, {"measurement": "increase of tumor-infiltrating CD8+ T cells", "setting": "[3]; [6]", "result": 24.4, "unit": "fold"}, {"measurement": "infiltrating natural killer (NK) cells", "setting": "[3]; [6]", "result": "increased"}, {"measurement": "influx of DCs, basophils, monocytes and macrophages", "setting": "[3]; [6]", "result": "promoted the influx"}, {"measurement": "metastasis to lungs", "setting": "[4]", "result": "did not show benefits"}, {"measurement": "primary tumor growth in the pancreas", "setting": "[4]", "result": "did not show benefits"}, {"measurement": "stability against ENPP1", "setting": "[5]", "result": "enhanced stability"}]}]}
